Experiment [1] deals with fACC2 (UniProt Q00955). The experiment in a line: In vitro ACC2 inhibition assay (ADP-Glo), fungal ACC2. Type of experiment: biochemical. Summed up: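 ADP-Glo luminescent ADP detection with 5 nM ACC2, 20 μM ATP, 20 μM acetyl-CoA, 12 mM NaHCO3, 2 mM DTT, 5% DMSO; compound (30 μM-0.00051 μM, 11 points) preincubated 15 min, reaction 60 min at room temperature. Percent inhibition against DMSO and positive controls; IC50 by four-parameter nonlinear fit.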

The test system of experiment [2] is C. krusei ATCC 6258. The experiment in a line: Anti-Fungal (Candida) Activity Assay, broth microtiter MIC. Type of experiment: cell-based, Candida krusei. The following applies: Pichia kudriavzevii, ATCC6258, 48 h, 3 replicates, MIC read at 48 h. Summed up:
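Broth microdilution per CLSI M27-A3 in RPMI 1640 + MOPS, at a final inoculum of 2.5×10^3 CFU/mL. Compound DMSO stocks were diluted in water to a 128 μg/mL working solution. MIC was read visually against the growth control at 48 h.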

Experiment [3] deals with Botrtyis cinerea (Bc). As to the kind of experiment: Growth inhibition assay of fungal pathogens. Particulars: 48 h, read-out: Concentration at 90% Inhibition Bc. Type of experiment: cell-based. Summed up: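 Spores, or mycelial plugs for Rhizoctonia, in 17% V8 medium (¼ PDB for plugs) were exposed to compound at final 50, 10 and 2 ppm or 2, 0.4 and 0.08 ppm, with 2% DMSO. Growth was read by OD600 with blank subtraction plus visual rating; percent inhibition at 48 h is relative to 2% DMSO control.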

Values after ≈ are worked out from the molar mass of the structure shown. Where two headings read alike, the source gives them in different places.

Chain of fACC2 (Q00955 whole entry): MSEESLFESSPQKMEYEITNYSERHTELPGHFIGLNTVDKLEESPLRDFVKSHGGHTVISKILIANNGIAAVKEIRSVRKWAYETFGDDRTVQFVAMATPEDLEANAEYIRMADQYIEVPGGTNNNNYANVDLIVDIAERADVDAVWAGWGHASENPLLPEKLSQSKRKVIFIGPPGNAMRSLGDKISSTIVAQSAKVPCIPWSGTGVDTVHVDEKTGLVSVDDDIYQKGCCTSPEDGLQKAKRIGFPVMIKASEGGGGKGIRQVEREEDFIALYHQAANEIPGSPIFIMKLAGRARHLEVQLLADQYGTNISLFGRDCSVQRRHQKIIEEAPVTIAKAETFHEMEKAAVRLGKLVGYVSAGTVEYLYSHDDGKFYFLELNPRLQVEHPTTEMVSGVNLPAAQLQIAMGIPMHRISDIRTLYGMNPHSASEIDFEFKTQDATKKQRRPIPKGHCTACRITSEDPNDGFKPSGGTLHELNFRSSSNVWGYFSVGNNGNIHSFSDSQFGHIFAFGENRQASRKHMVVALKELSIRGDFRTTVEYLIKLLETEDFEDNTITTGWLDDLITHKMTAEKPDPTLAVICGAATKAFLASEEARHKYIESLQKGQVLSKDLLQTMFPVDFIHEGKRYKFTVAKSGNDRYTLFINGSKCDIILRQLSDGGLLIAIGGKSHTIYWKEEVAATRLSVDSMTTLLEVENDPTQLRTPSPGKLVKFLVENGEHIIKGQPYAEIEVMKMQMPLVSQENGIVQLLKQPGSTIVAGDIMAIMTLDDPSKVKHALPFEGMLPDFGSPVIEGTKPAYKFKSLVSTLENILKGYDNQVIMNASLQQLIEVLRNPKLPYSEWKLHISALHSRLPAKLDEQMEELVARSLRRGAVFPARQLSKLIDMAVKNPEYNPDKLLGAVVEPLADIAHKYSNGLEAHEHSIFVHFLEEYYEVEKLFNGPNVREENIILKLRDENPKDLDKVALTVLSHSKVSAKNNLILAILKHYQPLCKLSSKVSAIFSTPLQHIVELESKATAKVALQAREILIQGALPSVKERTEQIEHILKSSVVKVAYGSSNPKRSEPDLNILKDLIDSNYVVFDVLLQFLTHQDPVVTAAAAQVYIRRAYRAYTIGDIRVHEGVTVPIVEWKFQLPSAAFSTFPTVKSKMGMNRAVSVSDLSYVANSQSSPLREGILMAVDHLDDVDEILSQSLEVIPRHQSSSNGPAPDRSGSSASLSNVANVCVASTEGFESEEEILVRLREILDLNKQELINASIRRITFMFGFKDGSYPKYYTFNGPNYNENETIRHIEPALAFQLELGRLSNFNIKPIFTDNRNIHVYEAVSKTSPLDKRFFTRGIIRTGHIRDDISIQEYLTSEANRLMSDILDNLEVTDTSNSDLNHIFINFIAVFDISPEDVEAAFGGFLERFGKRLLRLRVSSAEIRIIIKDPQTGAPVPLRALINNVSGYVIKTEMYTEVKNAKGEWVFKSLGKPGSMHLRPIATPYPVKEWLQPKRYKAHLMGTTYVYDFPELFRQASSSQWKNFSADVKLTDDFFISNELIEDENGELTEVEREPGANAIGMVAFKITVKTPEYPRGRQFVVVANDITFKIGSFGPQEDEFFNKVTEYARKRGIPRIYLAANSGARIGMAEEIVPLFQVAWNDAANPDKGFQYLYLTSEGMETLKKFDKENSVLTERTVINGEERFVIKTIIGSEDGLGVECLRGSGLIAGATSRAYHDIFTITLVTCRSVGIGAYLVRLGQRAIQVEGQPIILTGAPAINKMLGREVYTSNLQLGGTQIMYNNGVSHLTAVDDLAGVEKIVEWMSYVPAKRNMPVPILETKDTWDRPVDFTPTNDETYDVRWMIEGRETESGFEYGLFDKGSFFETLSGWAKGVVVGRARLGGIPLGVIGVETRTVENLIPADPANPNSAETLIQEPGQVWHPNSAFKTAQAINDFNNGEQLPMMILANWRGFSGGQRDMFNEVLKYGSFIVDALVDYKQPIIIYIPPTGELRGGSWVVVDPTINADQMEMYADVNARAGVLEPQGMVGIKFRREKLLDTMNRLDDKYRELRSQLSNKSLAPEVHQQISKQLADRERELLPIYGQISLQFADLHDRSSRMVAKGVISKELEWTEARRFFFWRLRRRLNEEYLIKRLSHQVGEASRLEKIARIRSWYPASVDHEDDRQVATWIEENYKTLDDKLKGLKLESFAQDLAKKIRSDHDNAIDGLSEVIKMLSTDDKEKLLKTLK

A word on the IC50: it is the concentration that gives 50% inhibition. Read a low IC50 as greater potency in that assay. As usually defined, the MIC is the smallest concentration in the dilution series that meets the test's criterion for growth inhibition. Read a high MIC as a less susceptible organism. Regarding `CCOC(=O)c1sc2c(c1C)c(=O)n(C(C)(C)C(=O)NC(C)C)c(=O)n2C[C@H](OCCOC)c1cc(F)ccc1OC` [Compound I-11, (R)-ethyl 1-(2-(5-fluoro-2-methoxyphenyl)-2-(2-methoxy-ethoxy)ethyl)-3-(1-(isopropylamino)-2-methyl-1-oxopropan-2-yl)-5-methyl-2,4-dioxo-1,2,3,4-tetrahydrothieno[2,3-d]pyrimidine-6-carboxylate], the IC50 in experiment [1] (Table 2a) lay in the range of 0.6 to 3 nM; in experiment [1] (Table 2b (additional results)) it was 0.3 to 3 nM. Moreover, the MIC in experiment [2] (Table 3a) and in experiment [2] (Table 3b (additional results)) was 2.1 to 4 µg/mL (≈ 3.46 to 6.58 µM) throughout. Also, the IC90 in experiment [3] (Table 4a) and in experiment [3] (Table 4b) was 2 µg/mL (≈ 3.29 µM) throughout.

As to `CCOC(=O)c1sc2c(c1C)c(=O)n([C@H](C)C(=O)N(C)C(C)C)c(=O)n2C[C@H](OCCC#N)c1cc(F)ccc1OC` [Compound I-27, ethyl 1-((R)-2-(2-cyanoethoxy)-2-(5-fluoro-2-methoxy-phenyl)ethyl)-3-((R)-1-(isopropyl(methyl)amino)-1-oxopropan-2-yl)-5-methyl-2,4-dioxo-1,2,3,4-tetrahydrothieno[2,3-d]pyrimidine-6-carboxylate], in experiment [1] (Table 2b (additional results)), the IC50 lay within 0.3 to 3 nM. This molecule showed an MIC in experiment [2] (Table 3b (additional results)) of 0.25 to 1 µg/mL (≈ 0.415 to 1.66 µM). Besides, the IC90 in experiment [3] (Table 4b) is 2 µg/mL (≈ 3.32 µM).

In the case of `CCOC(=O)c1sc2c(c1C)c(=O)n(C(C)(C)C(=O)N1CCCC1)c(=O)n2C[C@H](OC1CCOCC1)c1ccccc1OC` [Compound I-3, ethyl (R)-1-(2-(2-methoxyphenyl)-2-((tetrahydro-2H-pyran-4-yl)oxy)ethyl)-5-methyl-3-(2-methyl-1-oxo-1-(pyrrolidin-1-yl)propan-2-yl)-2,4-dioxo-1,2,3,4-tetrahydrothieno[2,3-d]pyrimidine-6-carboxylate], the concentration for half-maximal inhibition (IC50) fell in the range of 0.6 to 3 nM in experiment [1] (Table 2a) and 0.3 to 3 nM in experiment [1] (Table 2b (additional results)). The minimal inhibitory concentration (MIC) in experiment [2] (Table 3a) was 0.25 to 1 µg/mL (≈ 0.398 to 1.59 µM); in experiment [2] (Table 3b (additional results)), 2.1 to 4 µg/mL (≈ 3.35 to 6.37 µM). In addition, the IC90 in experiment [3] (Table 4a) and in experiment [3] (Table 4b) was 2 µg/mL (≈ 3.19 µM) in each case.

For the molecule `CCOC(=O)c1sc2c(c1C)c(=O)n(C(C)(C)C(=O)N1CCOCC1)c(=O)n2C[C@H](OC(C)C)c1ccccc1OC` [Compound I-5, (R)-ethyl 1-(2-isopropoxy-2-(2-methoxyphenyl)ethyl)-5-methyl-3-(2-methyl-1-morpholino-1-oxopropan-2-yl)-2,4-dioxo-1,2,3,4-tetrahydrothieno[2,3-d]pyrimidine-6-carboxylate], the IC50 in experiment [1] (Table 2a) and in experiment [1] (Table 2b (additional results)) was 3 to 10 nM throughout. Further, the minimal inhibitory concentration (MIC) in experiment [2] (Table 3a) is over 4.1 µg/mL; in experiment [2] (Table 3b (additional results)), 2.1 to 4 µg/mL (≈ 3.49 to 6.65 µM). The IC90 in experiment [3] (Table 4a) and in experiment [3] (Table 4b) was 0.4 µg/mL (≈ 0.665 µM) in each case.

With `CCOC(=O)c1sc2c(c1C)c(=O)n(C(C)(C)C(=O)N1CCCC1)c(=O)n2C[C@H](OC(C)C)c1ccccc1OC` [Compound I-7, (R)-ethyl 1-(2-isopropoxy-2-(2-methoxyphenyl)ethyl)-5-methyl-3-(2-methyl-1-oxo-1-(pyrrolidin-1-yl)propan-2-yl)-2,4-dioxo-1,2,3,4-tetrahydrothieno[2,3-d]pyrimidine-6-carboxylate], the IC50 fell in the range of 0.6 to 3 nM in experiment [1] (Table 2a) and 0.3 to 3 nM in experiment [1] (Table 2b (additional results)). Besides, the MIC in experiment [2] (Table 3a) and in experiment [2] (Table 3b (additional results)) was 2.1 to 4 µg/mL (≈ 3.59 to 6.83 µM) throughout. Also, the IC90 in experiment [3] (Table 4a) and in experiment [3] (Table 4b) was 0.4 µg/mL (≈ 0.683 µM) in each case.

In the case of `CCOC(=O)c1sc2c(c1C)c(=O)n(C(C)(C)C(=O)NC(C)C)c(=O)n2C[C@H](OCCC#N)c1cc(F)ccc1OC` [Compound I-15, (R)-ethyl 1-(2-(2-cyanoethoxy)-2-(5-fluoro-2-methoxy-phenyl)ethyl)-3-(1-(isopropylamino)-2-methyl-1-oxopropan-2-yl)-5-methyl-2,4-dioxo-1,2,3,4-tetrahydrothieno[2,3-d]pyrimidine-6-carboxylate], the IC50 was in the range of 0.6 to 3 nM in experiment [1] (Table 2a) and 0.3 to 3 nM in experiment [1] (Table 2b (additional results)). Also, the MIC in experiment [2] (Table 3a) and in experiment [2] (Table 3b (additional results)) was 0.25 to 1 µg/mL (≈ 0.415 to 1.66 µM) throughout. Further, the IC90 in experiment [3] (Table 4a) and in experiment [3] (Table 4b) was 0.4 µg/mL (≈ 0.664 µM) in each case.

For `CCOC(=O)c1sc2c(c1C)c(=O)n(C(C)(C)C(N)=O)c(=O)n2C[C@H](OCCC#N)c1cc(F)ccc1OC` [Compound I-14, (R)-ethyl 3-(1-amino-2-methyl-1-oxopropan-2-yl)-1-(2-(2-cyanoethoxy)-2-(5-fluoro-2-methoxyphenyl)ethyl)-5-methyl-2,4-dioxo-1,2,3,4-tetrahydro-thieno[2,3-d]pyrimidine-6-carboxylate], the values for the IC50 in experiment [1] (Table 2a) and in experiment [1] (Table 2b (additional results)) were 0.6 to 3 nM and 0.3 to 3 nM, respectively. Further, the MIC in experiment [2] (Table 3a) was over 4.1 µg/mL; in experiment [2] (Table 3b (additional results)), 2.1 to 4 µg/mL (≈ 3.75 to 7.14 µM). For the same molecule, the IC90 in experiment [3] (Table 4a) and in experiment [3] (Table 4b) was 2 µg/mL (≈ 3.57 µM) in each case.

Take `CCOC(=O)c1sc2c(c1C)c(=O)n(C(C)(C)C(=O)N1CCCC1)c(=O)n2C[C@H](OCCO)c1cc(F)ccc1OC` [Compound I-12, (R)-ethyl 1-(2-(5-fluoro-2-methoxyphenyl)-2-(2-hydroxy-ethoxy)ethyl)-5-methyl-3-(2-methyl-1-oxo-1-(pyrrolidin-1-yl)propan-2-yl)-2,4-dioxo-1,2,3,4-tetrahydrothieno[2,3-d]pyrimidine-6-carboxylate]: the IC50 was 0.6 to 3 nM in experiment [1] (Table 2a) and 0.3 to 3 nM in experiment [1] (Table 2b (additional results)). Further, the MIC in experiment [2] (Table 3a) and in experiment [2] (Table 3b (additional results)) was 2.1 to 4 µg/mL (≈ 3.47 to 6.6 µM) each time. The IC90 in experiment [3] (Table 4a) and in experiment [3] (Table 4b) was 2 µg/mL (≈ 3.3 µM) each time.

(Values after US11098055B2, “Ester ACC inhibitors and uses thereof” (Gilead Apollo, LLC, priority 2015, dated 2021).)
